Reference: US20200069592A1, “HSP90 INHIBITOR ORAL FORMULATIONS AND RELATED METHODS” (Samus Therapeutics, Inc., priority 2017, published 2020)
Like-named read-outs stand apart in the source and are kept apart here. Marks after values point to notes of the source that are not given here.

Legend:
[1] = Body weight change / dose tolerance in the MDA-MB-468 xenograft study
From the text: (§2) The animals used in this study were Nu/Nu (NU-Foxn1^nu) (athymic nude) physiologically normal female mice supplied by Charles River. At the time of inoculation, the age of the animals was 5-8 weeks. Sixty total animals were used and animals were not replaced during the course of this study. Mice were identified with a transponder. The animals were housed in individually ventilated microisolator cages and allowed to acclimate for at least 5-7 days. The animals were maintained under pathogen-free conditions and given Teklad Global Diet® 2920x irradiated pellets for food and autoclaved water ad libitum.
(§3) Compound ldihydrochloride (2HCl) was provided as a crystalline powder and stored at 2-8° C. protected from light. The administered form of Compound 1 2HCl was a clear solution. For intraperitoneal administration, Compound 1 2HCl was reconstituted in PBS. For oral administration, Compound 1 2HCl was reconstituted in 0.5% Methylcellulose (MC) in water. The salt: base ratio was 1.14:1 (i.e., to obtain 100 mg of Compound 1 free base, 114 mg of Compound 1 dihydrochloride salt was weighed out). Dose levels of Compound 1 were based on the free base, not the salt. Compound 1 2HCl in administered form was prepared fresh immediately prior to use.
(§4) Animals were randomized using random equilibration of tumor volume into one of six study groups, as shown in Table 22 (Groups 1-6), with 10 animals in each group.
(§5) Group 1 was administered vehicle control alone (without Compound 1 2HCl) intraperitoneally (IP) three times weekly (TIW) until the end of the study. PBS was used as the vehicle control and was administered at a volume of 10 mL/kg.
(§6) Groups 2-6 were administered Compound 1 2HCl at a volume of 10 mL/kg three times weekly (TIW) until the end of the study with the doses as described next.
(§7) Group 2 received 75 mg/kg Compound 1 2HCl via intraperitoneal administration.
(§8) Group 3 received 75 mg/kg Compound 1 2HCl via oral administration (PO). Group 4 received 100 mg/kg Compound 1 2HCl via oral administration. Group 5 received 125 mg/kg Compound 1 2HCl via oral administration. Group 6 received 150 mg/kg Compound 1 2HCl via oral administration. […]
(§9) Tumor volume and body weight were measured twice weekly with gross observations daily. […]
(§10) For data analysis, simple statistics (ANOVA) will be conducted on tumor volumes to verify significance of treatment groups relative to control. Growth curves will be constructed and percent tumor growth inhibition (TGI) will be calculated as a means to assess the effect of the single-agent therapy regimens. […]
(§11) The Materials and Methods used were the same as discussed above for Example 3, except for the lengths of treatment for Groups 1-4. […] Tumor growth and body weight were measured twice weekly with gross observations daily for Groups 1-5 until Day 117.

in vivo = conditions: female, Nu/Nu (NU-Foxn1^nu) athymic nude, mouse, ip
From the text: as §2, §3, §4, §5, §6, §7, §8, §9, §10, §11

[2] = Plasma pharmacokinetics after single oral dose in ORA-Plus or SyrSpend SF (Example 6), LC-MS/MS; format: in vivo, Sprague Dawley rats; conditions: for % AUC0-last test vs reference: rats, ratio of group averages; for AUC(0-t) / Cmax / Tmax / AUC(0-inf) / half-life: female, Sprague Dawley, rat, plasma, po
[3] = test system: MDA-MB-468 triple negative breast tumor xenograft; experiment: MDA-MB-468 triple negative breast tumor xenograft model, tumor volume (IP vs PO); format: in vivo, Nu/Nu (athymic nude) female mice; conditions: for Mean tumor volume as % of mean tumor volume in control mice receiving vehicle alone / Mean tumor volume as % of mean tumor volume in mice receiving 75 mg/kg orally or intraperitoneally: Day 89; for Mean tumor volume on Day 117 relative to the same mice at Day 1: treatment stopped Day 103
Protocol: Mice were identified with a transponder.
To form the xenografts, 1×10^7 MDA-MB-468 cells suspended in 0.1 ml of 50% Matrigel/50% Media (1:1) were injected into the mammary fat pad of each mouse. Treatment was initiated when the mean tumor size reached 100-150 mm^3 and the day of treatment initiation was designated as Day 1. Subcutaneous tumor size was calculated as tumor volume (mm^3)=(a×b^2/2), where ‘b’ is the smallest diameter and ‘a’ is the largest diameter.
Oral gavage was used for oral administration.

[4] = female, Nu/Nu (NU-Foxn1^nu) athymic nude, mouse, in vivo, po, 150 mg/kg, 14 days
From the text: as §2, §3, §4, §5, §6, §7, §8, §9, §10, §11

[5] = Solubility / compatibility testing in drinking solution vehicles and ingredients (Example 7); format: physicochemical
From the text: This Example examined drinking solution vehicles for Compound 1 2HCl. Initially Orasweet® Sugar Free options were explored as a vehicle for Compound 1 2HCl.
ORA-Sweet®, commerically available from Perrigo, comprises purified water, sucrose, glycerine, sorbitol, and flavouring. ORA-Sweet® is buffered with citric acid and sodium phosphate and preserved with methylparaben and potassium sorbate.
ORA-Sweet® Sugar Free, commerically available from Perrigo, comprises purified water, glycerine, sorbitol, sodium saccharin, xanthan gum, and flavouring. It is buffered with citric acid and sodium citrate and preserved with methylparaben (0.03%), potassium sorbate (0.1%), and propylparaben (0.008%).
SyrSpend® SF Cherry, commercially available from Fargon, comprises purified water, modified food starch, sodium citrate, citric acid, sucralose, sodium benzoate (<0.1% preservative), sorbic acid, malic acid and simethicone.
SyrSpend® SF Alka, commercially available from Fargon, comprises modified starch, calcium carbonate and sucralose.
(§1) ORA-Blend®, commerically available from Perrigo, comprises purified water, sucrose, glycerin, sorbitol, flavoring, microcrystalline cellulose, carboxymethylcellulose sodium, xanthan gum, carrageenan, calcium sulfate, trisodium phosphate, citric acid and sodium phosphate as buffers, dimethicone antifoam emulsion and preserved with methylparaben and potassium sorbate.
as §1, with “ORA-Plus®,” for “ORA-Blend®,”, “water,” for “water, sucrose, glycerin, sorbitol, flavoring,”

[6] = Tolerability (body weight, toxicity, maximum tolerated dose) in the Example 5 rat study; format: in vivo; conditions: female, Sprague Dawley, rat, in vivo, iv
Protocol: Ninety-four total animals were observed thereafter. The parenteral administration is performed by tail vein injection.

[7] = G5: 2HCl, 24 mg/kg single oral dose, ORA-plus, rat plasma, n = 4
[8] = G6: 2HCl, 48 mg/kg single oral dose, ORA-plus, rat plasma
[9] = G12: 2HCl, 24 mg/kg single oral dose, SyrSpend, rat plasma, n = 1
[10] = G13: 2HCl, 48 mg/kg single oral dose, SyrSpend, n = 2
[11] = G14: 2HCl, 60 mg/kg single oral dose, SyrSpend, n = 3
[12] = 24 mg/kg, G5: 2HCl, 24 mg/kg single oral dose, ORA-plus, rat plasma
[13] = 24 mg/kg, G5: 2HCl, 24 mg/kg single oral dose, ORA-plus, rat plasma, n = 4
[14] = 24 mg/kg, G12: 2HCl, 24 mg/kg single oral dose, SyrSpend, rat plasma
[15] = 24 mg/kg, G12: 2HCl, 24 mg/kg single oral dose, SyrSpend, rat plasma, n = 1
[16] = 48 mg/kg, G6: 2HCl, 48 mg/kg single oral dose, ORA-plus, rat plasma
[17] = 48 mg/kg, G13: 2HCl, 48 mg/kg single oral dose, SyrSpend
[18] = 48 mg/kg, G13: 2HCl, 48 mg/kg single oral dose, SyrSpend, n = 2
[19] = 60 mg/kg, G14: 2HCl, 60 mg/kg single oral dose, SyrSpend
[20] = 60 mg/kg, G14: 2HCl, 60 mg/kg single oral dose, SyrSpend, n = 3

CC(C)NCCCn1c(Sc2cc3c(cc2I)OCO3)nc2c(N)ncnc21 [Compound 1 2HCl]
Body weight change ([1]; 100 mg/kg PO, during and after treatment (to Day 117)): minimal effects on body weight | Body weight change ([1]; Group 2: 75 mg/kg IP, Day 5 and Day 8): greater decrease in body weight | MTD at 103 days (in vivo): 75 mg/kg | AUC % Extrap [2, 7]: 5.00 ± 4.92 % | Cl_F [2, 7]: 6.14 ± 2.32 L/h/kg | Vz_F [2, 7]: 15.12 ± 3.53 L/kg | AUC % Extrap [2, 8]: 1.42 ± 0.79% | Cl_F [2, 8]: 6.63 ± 2.82 L/h/kg | Vz_F [2, 8]: 33.74 ± 16.37 L/kg | AUC % Extrap [2, 9]: 0.47^a % | Cl_F [2, 9]: 4.17^a L/hr/kg | Vz_F [2, 9]: 17.51^a L/kg | AUC % Extrap [2, 10]: 6.76 ± 5.82 % | Cl_F [2, 10]: 22.85 ± 5.76 L/h/kg | Vz_F [2, 10]: 139.42 ± 13.22 L/kg | AUC % Extrap [2, 11]: 0.69 ± 0.34 % | Vz_F [2, 11]: 27.15 ± 11.86 L/kg | % AUC0-last test vs reference ([2]; Group 5 (24 mg/kg 2HCl ORA-plus) vs Group 6 (48 mg/kg 2HCl ORA-plus)): 53.01% | % AUC0-last test vs reference ([2]; Group 5 (24 mg/kg 2HCl ORA-plus) vs Group 12 (24 mg/kg 2HCl SyrSpend)): 84.12% | % AUC0-last test vs reference ([2]; Group 6 (48 mg/kg 2HCl ORA-plus) vs Group 13 (48 mg/kg 2HCl SyrSpend)): 298.14% | % AUC0-last test vs reference ([2]; Group 6 (48 mg/kg 2HCl ORA-plus) vs Group 14 (60 mg/kg 2HCl SyrSpend)): 62.79% | % AUC0-last test vs reference ([2]; Group 12 (24 mg/kg 2HCl SyrSpend) vs Group 13 (48 mg/kg 2HCl SyrSpend)): 187.87% | % AUC0-last test vs reference ([2]; Group 12 (24 mg/kg 2HCl SyrSpend) vs Group 14 (60 mg/kg 2HCl SyrSpend)): 39.57% | % AUC0-last test vs reference ([2]; Group 13 (48 mg/kg 2HCl SyrSpend) vs Group 14 (60 mg/kg 2HCl SyrSpend)): 21.06% | AUC(0-t) [2, 12]: 4200 ± 1120 ng·h/mL | Cmax [2, 12]: 1070 ± 221 ng/mL | Tmax [2, 12]: 2.4 ± 0.89 h | AUC(0-inf) [2, 13]: 4250 ± 1230 ng·h/mL | half-life [2, 13]: 1.8 ± 0.47 h | AUC(0-t) [2, 14]: 5000 ± 1260 ng·h/mL | Cmax [2, 14]: 1030 ± 151 ng/mL | Tmax [2, 14]: 3.2 ± 1.1 h | AUC(0-inf) [2, 15]: 5750 ng·h/mL | half-life [2, 15]: 2.91 h | AUC(0-inf) [2, 16]: 8040 ± 2410 ng·h/mL | AUC(0-t) [2, 16]: 7930 ± 2380 ng·h/mL | Cmax [2, 16]: 1120 ± 429 ng/mL | Tmax [2, 16]: 2.8 ± 1.1 h | half-life [2, 16]: 3.5 ± 0.53 h | AUC(0-t) [2, 17]: 2660 ± 946 ng·h/mL | Cmax [2, 17]: 1990 ± 787 ng/mL | Tmax [2, 17]: 0.7 ± 0.27 h | AUC(0-inf) [2, 18]: 2170 ± 548 ng·h/mL | half-life [2, 18]: 4.42 ± 1.52 h | AUC(0-t) [2, 19]: 12600 ± 5100 ng·h/mL | Cmax [2, 19]: 1710 ± 314 ng/mL | Tmax [2, 19]: 2.4 ± 2.07 h | AUC(0-inf) [2, 20]: 11500 ± 4440 ng·h/mL | half-life [2, 20]: 3.2 ± 0.4 h | Time point up to which all animals had quantifiable plasma levels ([2]; single oral dose, ORA-Plus or SyrSpend, data not shown): ≥ 8 h | Effect on tumor growth (tumor volume) ([3]; 75 mg/kg IP, TIW, Day 36): tumor inhibition was observed | Mean tumor volume as % of mean tumor volume in control mice receiving vehicle alone ([3]; 75 mg/kg IP, TIW): about 20% | Mean tumor volume on Day 117 relative to the same mice at Day 1 ([3]; 75 mg/kg IP): 1.7-1.9 times | Effect on tumor growth (tumor volume) ([3]; 75 mg/kg PO vs same dose IP, first 14 days of treatment): inhibited tumor growth slightly more than intraperitoneal administration | Effect on tumor growth (tumor volume) ([3]; 75 mg/kg PO, TIW, Day 36): tumor inhibition was observed | Mean tumor volume as % of mean tumor volume in control mice receiving vehicle alone ([3]; 75 mg/kg PO, TIW): about 20% | Mean tumor volume on Day 117 relative to the same mice at Day 1 ([3]; 75 mg/kg PO): 1.7-1.9 times | Effect on tumor growth (tumor volume) ([3]; 100 mg/kg PO, TIW, 89 days): tumor regressive | Effect on tumor growth (tumor volume) ([3]; 100 mg/kg PO, TIW, Day 36): Tumor inhibition was also observed | Mean tumor volume as % of mean tumor volume in mice receiving 75 mg/kg orally or intraperitoneally ([3]; 100 mg/kg PO, TIW): about 50% | Mean tumor volume as % of mean tumor volume in the same mice at day 1 ([3]; 100 mg/kg PO, after treatment stopped Day 103, study to Day 117): about 63% | Effect on tumor growth (tumor volume) ([3]; 125 mg/kg PO, TIW (dosing holiday Day 29), 36 day period): caused tumor regression | Mean tumor volume as % of mean tumor volume in mice receiving 75 mg/kg orally or intraperitoneally ([3]; 125 mg/kg PO, TIW with dosing holidays, dosing ended Day 78): about 50% | Effect on tumor growth (tumor volume) ([3]; 125 mg/kg PO, TIW with dosing holidays, 89 days): tumor regressive | Mean tumor volume as % of mean tumor volume in the same mice at day 1 ([3]; 125 mg/kg PO, after treatment stopped Day 78, study to Day 117): ~70% | Effect on tumor growth (tumor volume) ([3]; Group 2: 75 mg/kg IP in PBS, TIW, Study Days 1-8): did not inhibit tumor growth | Effect on tumor growth (tumor volume) ([3]; Group 3: 75 mg/kg PO in 0.5% MC, TIW, Day 8, compared with Group 2): tumor growth was reduced | Effect on tumor growth (tumor volume) ([3]; Group 4: 100 mg/kg PO, TIW, Days 1-8, compared to Group 1): Inhibition of tumor growth | Effect on tumor growth (tumor volume) ([3]; Group 5: 125 mg/kg PO, TIW, Days 1-8): greatest suppression of tumor growth | Effect on tumor growth (tumor volume) ([3]; Group 6: 150 mg/kg PO, TIW, Days 1-8): greatest suppression of tumor growth | Treatment toxicity [4]: stopped on Day 14 due to toxicity | solubility ([5]; 50% Flavor Sweet SF in water, aqueous with cosolvent or surfactant or cyclodextrin, API in 50% Flavor Sweet SF/H2O, read-out: Solubility testing result: Precipitate at): < 5000 µg/mL | solubility ([5]; 50% Versa Free in water, aqueous with cosolvent or surfactant or cyclodextrin, API in 50% Versa Free/H2O, read-out: Solubility testing result: Precipitate at): < 5000 µg/mL | solubility ([5]; Flavor Sweet (sugar free) vehicle, aqueous with cosolvent or surfactant or cyclodextrin, API in Flavor Sweet (sugar free), read-out: Solubility testing result: Precipitate at): < 5000 µg/mL | Compatibility with drinking solution vehicle ([5]; Orasweet Sugar Free formulations (contain xanthan gum)): incompatibility | solubility ([5]; Versa Free vehicle, aqueous with cosolvent or surfactant or cyclodextrin, API in Versa Free, read-out: Solubility testing result: Precipitate at): < 5000 µg/mL | solubility ([5]; glycerin in 50% water, aqueous with cosolvent or surfactant or cyclodextrin, read-out: Ingredient solubility testing): > 10000 µg/mL | solubility ([5]; glycerin, organic solvent or mixture, read-out: Ingredient solubility testing): > 6000 µg/mL | MTD [6]: 24 mg/kg
